Source: patent US9255077B2, “Fluorine atom-containing mercapto compound” (FUJIFILM CORPORATION, priority 2012, dated 2016)
Blank lines part the entries; values can stand above or below the molecule they belong to.

Test: Solubility check: surface profile of coated fluoropolymer film observed by optical microscope
Assay type: physicochemical
Details: for Solubility: 0.3 wt % with respect to Cytop CTL-809M in perfluorotributylamine/1,1,1,3,3,3-hexafluoropropan-2-ol/Cytop CTL-809M=90/5/5 (parts by weight), applied onto glass substrate, 2 μm film, dried; for Solubility / compatibility with resin: same test as Table 1, coated Cytop CTL-809M film
Protocol: To a mixed solution of perfluorotributylamine/1,1,1,3,3,3-hexafluoropropan-2-ol/Cytop CTL-809M (manufactured by Asahi Glass Co., Ltd.)=90/5/5 (parts by weight), was added the compound represented by formula (1) according to the invention (any of Compounds 1-1 to 1-8) or any of Comparative Compounds C-1 to C-3 as shown below in an amount of 0.3 wt % with respect to the Cytop CTL-809M. Thereafter, the mixed solution was applied onto a glass substrate to a film thickness of 2 μm and dried.

SMILES: O=C(CCSc1nnc(S)s1)OCC(F)(F)C(F)(C(F)(F)C(F)(F)F)C(F)(F)C(F)(F)C(F)(F)C(F)(F)F (centres unmarked) [Compound 1-8]
Solubility: Compatible

SMILES: CC(CSc1nnc(S)s1)C(=O)OCCC(F)(F)C(F)(F)C(F)(F)C(F)(F)C(F)(C(F)(F)F)C(F)(F)F (centres unmarked) [Compound 1-2]
Solubility: Compatible

SMILES: O=C(CCSc1nnc(S)s1)OCCC(F)(F)C(F)(F)C(F)(F)C(F)(F)C(F)(F)C(F)(F)C(F)(C(F)(F)F)C(F)(F)F [Compound 1-4]
Solubility: Compatible

SMILES: O=C(CSc1nnc(S)s1)OCCC(F)(F)C(F)(F)C(F)(F)C(F)(F)C(F)(F)C(F)(F)C(F)(F)F [Compound C-3, reference compound]
Solubility: Bleed out slightly | Solubility / compatibility with resin: bled out on the resin surface

SMILES: O=C(CCSc1nnc(S)s1)OCC(F)(F)C(F)(F)C(F)(F)C(F)(F)C(F)(C(F)(F)F)C(F)(F)F [Compound 1-6]
Solubility: Compatible

SMILES: O=C(CCSc1nnc(S)s1)OCCCC(F)(F)C(F)(F)C(F)(F)C(F)(F)C(F)(C(F)(F)F)C(F)(F)F [Compound 1-7]
Solubility: Compatible

SMILES: O=C(CCSc1nnc(S)s1)OCCC(F)(F)C(F)(F)C(F)(C(F)(F)F)C(F)(F)F [Compound 1-3]
Solubility: Compatible

SMILES: O=C(CCSc1nnc(S)s1)OCCC(F)(F)C(F)(F)C(F)(F)C(F)(F)C(F)(C(F)(F)F)C(F)(F)F [Compound 1-1]
Solubility: Compatible

Solubility: Remain partially | Solubility / compatibility with resin: remained partially undissolved
SMILES: CC(C)CCCCCCOC(=O)CCSc1nnc(S)s1 [Compound C-1, reference compound]

SMILES: O=C(CSc1nnc(S)s1)OCCC(F)(F)C(F)(F)C(F)(F)C(F)(F)F [Compound C-2, reference compound]
Solubility: Bleed out (compounds which bleed out are denoted by “Bleed out,”) | Solubility / compatibility with resin: bled out on the resin surface

SMILES: O=C(CSc1nnc(S)s1)OCCC(F)(F)C(F)(F)C(F)(F)C(F)(F)C(F)(C(F)(F)F)C(F)(F)F [Compound 1-5]
Solubility: Compatible
